Read-outs that look alike come from different tables or passages of the source. Starred links: 1 amine or outer side, 2 acyl side, 3 side chain; linkers in the order of their positions; H or OH if unused. Positions of bridges follow the written chain, without caps; N, C: chain ends. Non-standard residues stand in square brackets, D forms with d. Residues, ends and D or L forms follow the SMILES beside them. Chains are numbered I, II in the order given. *: point of attachment. isoGln = NC(=O)[C@H](CCC(=O)[*:2])N[*:1]; εLys = N[C@@H](CCCCN[*:1])C(=O)[*:2]; Dab = NCC[C@H](N)C(=O)O; PhAc = O=C(Cc1ccccc1)*
What was measured:
[1] = PK of Compound 1, 6-hour intravenous infusion in healthy men and women (Period 1); type: in vivo, human
Experimental: The administered volume was recorded for each subject.
In some instances, endpoints of the study were: vital signs (e.g., supine blood pressure, pulse, and body temperature), electrocardiogram (ECG) (e.g., intervals, rhythm, and morphology), cardiac function (e.g., cardiac output using echocardiography), peripheral blood flow/tissue perfusion (e.g., by skin color), venous blood gases (e.g., lactate), urinary output, clinical chemistry, hematology, hemostasis, and urinalysis, adverse events (AEs) (e.g., type, frequency, and intensity), pharmacokinetics (e.g., AUC, AUCt, AUCτ, % Extrap AUC, Cmax, tmax, CL, Vz, t1/2, MRT, Vss, F, Ae, and CLR), and metabolite pattern in plasma and urine.

[2] = test system: methionine/choline-deficient (MCD) diet rats; assay: ΔPP in methionine/choline-deficient (MCD) diet rats; type: in vivo, rat; settings: for Δ PP (mean): SC, MCD diet rats

With `CC[C@H](C)[C@@H]1NC(=O)[C@H](Cc2ccccc2)NC(=O)[C@@H](N)CSSC[C@@H](C(=O)N2CCC[C@H]2C(=O)N[C@@H](CCNC(=O)[C@@H](N)CCCCNC(=O)[C@H](CCCCNC(C)=O)NC(=O)CC[C@H](NC(=O)[C@H](CCCNC(=N)N)NC(=O)[C@@H]2CCCN2C(=O)[C@H](C)NC(=O)[C@H](CC(N)=O)NC(=O)[C@H](CCC(N)=O)NC(=O)[C@H](Cc2ccccc2)NC(=O)[C@@H](Cc2ccc(OC)cc2)NC(=O)Cc2ccccc2)C(N)=O)C(=O)NCC(N)=O)NC(=O)[C@H](CC(N)=O)NC(=O)[C@H](CCC(N)=O)NC1=O` [Compound 1, Glycinamide, L-cysteinyl-L-phenylalanyl-L-isoleucyl-L-glutaminyl-L-asparaginyl-L-cysteinyl-L-prolyl-N4-(phenylacetyl-O-methyl-D-tyrosyl-L-phenylalanyl-L-glutaminyl-L-asparaginyl-L-alanyl-L-prolyl-L-arginyl-L-isoglutamyl-N5-acetyl-L-lysyl-L-ε-lysyl)-L-2,4-diaminobutyryl-, cyclic (1→6)-disulfide] (I: H-CFIQNCP[Dab]G-NH2 / II: PhAc-[dY](Me)FQNAPR[isoGln]K(Ac)[εLys]; disulfide I:1-I:6; amide I:8-II:C) the CL renal ([1]; human, in vivo, iv, 0.1 mg, i.v. 0.1 mg, read-out: Renal CL, geometric mean (converted)) was 14.5 mL/min, the CL renal ([1]; human, in vivo, iv, 0.1 mg, i.v. 0.1 mg, read-out: Renal CL, mean (converted)) was 14.5 mL/min and the CL renal ([1]; human, in vivo, iv, 0.3 mg, i.v. 0.3 mg, read-out: Renal CL, geometric mean (converted)) was 11 mL/min. The CL renal ([1]; human, in vivo, iv, 0.3 mg, i.v. 0.3 mg, read-out: Renal CL, mean (converted)) was 11 mL/min, the CL renal ([1]; human, in vivo, iv, 0.45 mg, i.v. 0.45 mg, read-out: Renal CL, geometric mean (converted)) was 14 mL/min and the CL renal ([1]; human, in vivo, iv, 0.45 mg, i.v. 0.45 mg, read-out: Renal CL, mean (converted)) was 14.8 mL/min. For the same molecule, the CL renal ([1]; human, in vivo, iv, 0.6 mg, i.v. 0.6 mg, read-out: Renal CL, geometric mean (converted)) was 15.5 mL/min, the CL renal ([1]; human, in vivo, iv, 0.6 mg, i.v. 0.6 mg, read-out: Renal CL, mean (converted)) was 15.8 mL/min and the CL renal ([1]; human, in vivo, iv, 0.9 mg, i.v. 0.9 mg, read-out: Renal CL, geometric mean (converted)) was 14.8 mL/min. For the same molecule, the CL renal ([1]; human, in vivo, iv, 0.9 mg, i.v. 0.9 mg, read-out: Renal CL, mean (converted)) was 15.8 mL/min, the Vd ([1]; human, in vivo, iv, read-out: distribution volume (summary)) was 15 to 20 L and the “terminal half-life (summary)” value ([1]; i.v.) was “about 1.5 hours”. The “total clearance (summary)” value ([1]; i.v.) was “about 13 L/h”, the “AUC, geometric mean” value ([1]; i.v. 0.1 mg) was 6.96 ng·h/mL and the “AUC, mean” value ([1]; i.v. 0.1 mg) was 7.01 ng·h/mL. The “Cmax, geometric mean” value ([1]; i.v. 0.1 mg) was 1.18 ng/mL, the “Cmax, mean” value ([1]; i.v. 0.1 mg) was 1.19 ng/mL and the “T1/2, harmonic mean” value ([1]; i.v. 0.1 mg) was 1.2 h. The “Tot. CL, geometric mean” value ([1]; i.v. 0.1 mg) was 14.4 L/h, the “Tot. CL, mean” value ([1]; i.v. 0.1 mg) was 14.5 L/h and the “Vss, geometric mean” value ([1]; i.v. 0.1 mg) was 21.7 L. The “Vss, mean” value ([1]; i.v. 0.1 mg) was 21.8 L, the “tmax, mean” value ([1]; i.v. 0.1 mg) was 5.4 h and the “tmax, median” value ([1]; i.v. 0.1 mg) was 5.0 h. For the same molecule, the “AUC, geometric mean” value ([1]; i.v. 0.3 mg) was 24.6 ng·h/mL, the “AUC, mean” value ([1]; i.v. 0.3 mg) was 24.9 ng·h/mL and the “Cmax, geometric mean” value ([1]; i.v. 0.3 mg) was 4.45 ng/mL. The “Cmax, mean” value ([1]; i.v. 0.3 mg) was 4.49 ng/mL, the “T1/2, harmonic mean” value ([1]; i.v. 0.3 mg) was 1.2 h and the “Tot. CL, geometric mean” value ([1]; i.v. 0.3 mg) was 12.2 L/h. The “Tot. CL, mean” value ([1]; i.v. 0.3 mg) was 12.3 L/h, the “Vss, geometric mean” value ([1]; i.v. 0.3 mg) was 14.5 L and the “Vss, mean” value ([1]; i.v. 0.3 mg) was 15.0 L. For the same molecule, the “tmax, mean” value ([1]; i.v. 0.3 mg) was 5.2 h, the “tmax, median” value ([1]; i.v. 0.3 mg) was 5.5 h and the “AUC, geometric mean” value ([1]; i.v. 0.45 mg) was 34.1 ng·h/mL. The “AUC, mean” value ([1]; i.v. 0.45 mg) was 34.5 ng·h/mL, the “Cmax, geometric mean” value ([1]; i.v. 0.45 mg) was 6.20 ng/mL and the “Cmax, mean” value ([1]; i.v. 0.45 mg) was 6.26 ng/mL. The “Tot. CL, geometric mean” value ([1]; i.v. 0.45 mg) was 13.2 L/h, the “Tot. CL, mean” value ([1]; i.v. 0.45 mg) was 13.3 L/h and the “Vss, geometric mean” value ([1]; i.v. 0.45 mg) was 15.2 L. For the same molecule, the “Vss, mean” value ([1]; i.v. 0.45 mg) was 15.5 L, the “tmax, mean” value ([1]; i.v. 0.45 mg) was 5.0 h and the “tmax, median” value ([1]; i.v. 0.45 mg) was 5.0 h. The “AUC, geometric mean” value ([1]; i.v. 0.6 mg) was 46.5 ng·h/mL, the “AUC, mean” value ([1]; i.v. 0.6 mg) was 47.5 ng·h/mL and the “Cmax, geometric mean” value ([1]; i.v. 0.6 mg) was 8.32 ng/mL. The “Cmax, mean” value ([1]; i.v. 0.6 mg) was 8.45 ng/mL, the “Tot. CL, geometric mean” value ([1]; i.v. 0.6 mg) was 12.9 L/h and the “Tot. CL, mean” value ([1]; i.v. 0.6 mg) was 13.2 L/h. The “Vss, geometric mean” value ([1]; i.v. 0.6 mg) was 15.4 L, the “Vss, mean” value ([1]; i.v. 0.6 mg) was 16.3 L and the “tmax, mean” value ([1]; i.v. 0.6 mg) was 5.4 h. The “tmax, median” value ([1]; i.v. 0.6 mg) was 6.0 h, the “AUC, geometric mean” value ([1]; i.v. 0.9 mg) was 71.8 ng·h/mL and the “AUC, mean” value ([1]; i.v. 0.9 mg) was 72.5 ng·h/mL. For the same molecule, the “Cmax, geometric mean” value ([1]; i.v. 0.9 mg) was 12.7 ng/mL, the “Cmax, mean” value ([1]; i.v. 0.9 mg) was 12.8 ng/mL and the “T1/2, harmonic mean” value ([1]; i.v. 0.9 mg) was ~1.7 h. For the same molecule, the “T1/2, mean” value ([1]; i.v. 0.9 mg) was 2.0 h, the “Tot. CL, geometric mean” value ([1]; i.v. 0.9 mg) was 12.5 L/h and the “Tot. CL, mean” value ([1]; i.v. 0.9 mg) was 12.7 L/h. For the same molecule, the “Vss, geometric mean” value ([1]; i.v. 0.9 mg) was 15.3 L, the “Vss, mean” value ([1]; i.v. 0.9 mg) was 15.5 L and the “tmax, mean” value ([1]; i.v. 0.9 mg) was 5.3 h. For the same molecule, the “tmax, median” value ([1]; i.v. 0.9 mg) was 6.0 h, the “dose proportionality of AUC and Cmax” value ([1]; i.v., 0.1-0.9 mg) was “proportionality for both parameters” and the “harmonic mean terminal half-life” value ([1]; i.v., dose groups other than 0.6 and 0.9 mg) was 1.2 to 1.3 h. For the same molecule, the “exposure (AUC, Cmax), women versus men” value ([1]; i.v., also s.c.) was “higher exposure in women than in men”, the terminal half-life ([1]; route not stated) was 1.5 to 2 h and the “Δ PP (mean)” value ([2]; 25 μg/kg, 0 min) was 0.0 mmHg. The “Δ PP (mean)” value ([2]; 25 μg/kg, 1 min) was −0.3 mmHg, the “Δ PP (mean)” value ([2]; 25 μg/kg, 2 min) was −0.8 mmHg and the “Δ PP (mean)” value ([2]; 25 μg/kg, 3 min) was −1.3 mmHg. For the same molecule, the “Δ PP (mean)” value ([2]; 25 μg/kg, 5 min) was −1.8 mmHg, the “Δ PP (mean)” value ([2]; 25 μg/kg, 7 min) was −1.9 mmHg and the “Δ PP (mean)” value ([2]; 25 μg/kg, 10 min) was −2.1 mmHg. The “Δ PP (mean)” value ([2]; 25 μg/kg, 15 min) was −2.2 mmHg, the “Δ PP (mean)” value ([2]; 25 μg/kg, 20 min) was −2.3 mmHg and the “Δ PP (mean)” value ([2]; 25 μg/kg, 30 min) was −2.3 mmHg. The “Δ PP (mean)” value ([2]; 25 μg/kg, 60 min) was −2.2 mmHg, the “Δ PP (mean)” value ([2]; 25 μg/kg, 90 min) was −1.8 mmHg and the “Δ PP (mean)” value ([2]; 100 μg/kg, 0 min) was 0.0 mmHg. The “Δ PP (mean)” value ([2]; 100 μg/kg, 1 min) was −0.5 mmHg, the “Δ PP (mean)” value ([2]; 100 μg/kg, 2 min) was −1.2 mmHg and the “Δ PP (mean)” value ([2]; 100 μg/kg, 3 min) was −1.6 mmHg. For the same molecule, the “Δ PP (mean)” value ([2]; 100 μg/kg, 5 min) was −2.1 mmHg, the “Δ PP (mean)” value ([2]; 100 μg/kg, 7 min) was −2.5 mmHg and the “Δ PP (mean)” value ([2]; 100 μg/kg, 10 min) was −2.5 mmHg. For the same molecule, the “Δ PP (mean)” value ([2]; 100 μg/kg, 15 min) was −2.4 mmHg, the “Δ PP (mean)” value ([2]; 100 μg/kg, 20 min) was −2.3 mmHg and the “Δ PP (mean)” value ([2]; 100 μg/kg, 30 min) was −2.2 mmHg. The “Δ PP (mean)” value ([2]; 100 μg/kg, 60 min) was −2.0 mmHg, the “Δ PP (mean)” value ([2]; 100 μg/kg, 90 min) was −1.7 mmHg and the “Δ PP (mean)” value ([2]; 500 μg/kg, 0 min) was 0.0 mmHg. For the same molecule, the “Δ PP (mean)” value ([2]; 500 μg/kg, 1 min) was −1.2 mmHg, the “Δ PP (mean)” value ([2]; 500 μg/kg, 2 min) was −1.9 mmHg and the “Δ PP (mean)” value ([2]; 500 μg/kg, 3 min) was −2.5 mmHg. The “Δ PP (mean)” value ([2]; 500 μg/kg, 5 min) was −2.9 mmHg, the “Δ PP (mean)” value ([2]; 500 μg/kg, 7 min) was −3.3 mmHg and the “Δ PP (mean)” value ([2]; 500 μg/kg, 10 min) was −2.9 mmHg. For the same molecule, the “Δ PP (mean)” value ([2]; 500 μg/kg, 15 min) was −3.5 mmHg, the “Δ PP (mean)” value ([2]; 500 μg/kg, 20 min) was −3.8 mmHg and the “Δ PP (mean)” value ([2]; 500 μg/kg, 30 min) was −3.9 mmHg. For the same molecule, the “Δ PP (mean)” value ([2]; 500 μg/kg, 60 min) was −3.4 mmHg, the “Δ PP (mean)” value ([2]; 500 μg/kg, 90 min) was −3.7 mmHg and the “maximum ΔPP” value ([2]; SC 25 jag/kg (so in the source)) was −2.3±0.2 mmHg. For the same molecule, the “maximum ΔPP” value ([2]; SC 100 jag/kg (so in the source)) was −2.5±0.3 mmHg and the “maximum ΔPP” value ([2]; SC 500 jag/kg (so in the source)) was −3.9±0.8 mmHg.
